The values below come from the supplement of paper PMC12137928.

The assay concerns HCT116. The settings on record: 72 h. In short, it runs like this: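 Luminescence was read with CellTiter-Glo in HCT116 cells seeded at 250 per well in 1536-well plates. Signals were scaled between vehicle at 0% and positive control at -100%, then pattern-corrected. IC50 and maximal efficacy were obtained by fitting a four-parameter Hill equation.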

SMILES strings stand for the structures. Where a name gives a salt, the structure may show the parent alone.

As for `CCCNC(=O)NS(=O)(=O)c1ccc(Cl)cc1` [Chlorpropamide], the IC50 cell viability reads like this: (ICRF193 0 nM) > 45.8 µM; (ICRF193 200 nM) > 45.8 µM.

On to `CN1CCC(=C2c3ccccc3CC(=O)c3sccc32)CC1` [Ketotifen], for which the IC50 cell viability runs as follows: (ICRF193 0 nM) > 45.8 µM; (ICRF193 200 nM) > 45.8 µM.

`O=S(=O)(O)c1ccc2[nH]c(-c3ccccc3)nc2c1` [Ensulizole]: the IC50 cell viability (ICRF193 0 nM) was > 45.8 µM and the IC50 cell viability (ICRF193 200 nM) was > 45.8 µM.

With `Cc1ccc2c(n1)Oc1ccc(C(C)C(=O)OCC(=O)N(C)C)cc1C2` (configuration not stated) [Mepranoprofen arbamel], the IC50 cell viability was > 45.8 µM (ICRF193 0 nM) and > 45.8 µM (ICRF193 200 nM).

For the compound `CCCCNc1ccc(C(=O)OCCN(CC)CC)cc1` [Depolipon], the IC50 cell viability by setting is: (ICRF193 0 nM) > 45.8 µM; (ICRF193 200 nM) > 45.8 µM.

Regarding `Cc1cnc(C(=O)NCCc2ccc(S(=O)(=O)NC(=O)NC3CCCCC3)cc2)cn1` [Glipizide], the IC50 cell viability was > 45.8 µM (ICRF193 0 nM) and > 45.8 µM (ICRF193 200 nM).

Regarding `NCCNCCNCCNCCN` [Tetraethylenepentamine], the IC50 cell viability was > 45.8 µM (ICRF193 0 nM) and > 45.8 µM (ICRF193 200 nM).

Take `O=C([O-])CC([S-])C(=O)[O-].[Au+].[Na+].[Na+]` (configuration not stated) [Sodium aurothiomalate(I)]: the IC50 cell viability runs as follows: (ICRF193 0 nM) > 45.8 µM; (ICRF193 200 nM) > 45.8 µM.

`Cc1ccccc1-c1cc(N2CCN(C)CC2)ncc1N(C)C(=O)C(C)(C)c1cc(C(F)(F)F)cc(C(F)(F)F)c1` [Netupitant]: the IC50 cell viability was > 45.8 µM (ICRF193 0 nM) and > 45.8 µM (ICRF193 200 nM).

In the case of `CNCCc1ccccn1` [Betahistine mesylate], the IC50 cell viability is, setting by setting: (ICRF193 0 nM) > 45.8 µM; (ICRF193 200 nM) > 45.8 µM.

Take `CCOc1ccc(Cc2cc([C@@H]3O[C@H](CO)[C@@H](O)[C@H](O)[C@H]3O)ccc2Cl)cc1` [Dapagliflozin]: the IC50 cell viability reads like this: (ICRF193 0 nM) > 45.8 µM; (ICRF193 200 nM) > 45.8 µM.

Turning to `CNC[C@@H]1CC[C@@H](N)[C@@H](O[C@H]2[C@H](O)[C@@H](O[C@H]3OC[C@](C)(O)[C@H](NC)[C@H]3O)[C@H](N)C[C@@H]2N)O1` [Micronomicin sulfate], the IC50 cell viability was > 45.8 µM (ICRF193 0 nM) and > 45.8 µM (ICRF193 200 nM).

Take `COc1ccc(/C=C/C(=O)O)cc1` [4-Methoxycinnamic acid]: the IC50 cell viability (ICRF193 0 nM) was > 45.8 µM and the IC50 cell viability (ICRF193 200 nM) is > 45.8 µM.

As for `CC/C=C(\C(=O)N[C@@H]1C(=O)N2C(C(=O)OCOC(=O)C(C)(C)C)=C(COC(N)=O)CS[C@H]12)c1csc(N)n1` [Cefcapene pivoxil hydrochloride], the IC50 cell viability runs as follows: (ICRF193 0 nM) > 45.8 µM; (ICRF193 200 nM) > 45.8 µM.

Consider `CCCCCCO[C@@H](C)c1cccc(-c2csc(NC(=O)c3cc(Cl)c(/C=C(\C)C(=O)O)c(Cl)c3)n2)c1OC` [Lusutrombopag], for which the IC50 cell viability runs as follows: (ICRF193 0 nM) > 45.8 µM; (ICRF193 200 nM) > 45.8 µM.

In the case of `CC(/C=C1\SC(=S)N(CC(=O)O)C1=O)=C\c1ccccc1` [Epalrestat], the IC50 cell viability is > 45.8 µM (ICRF193 0 nM) and > 45.8 µM (ICRF193 200 nM).

Regarding `O=C(O)c1ccc2nc(-c3cc(Cl)cc(Cl)c3)oc2c1` [Tafamidis], the IC50 cell viability is, setting by setting: (ICRF193 0 nM) > 45.8 µM; (ICRF193 200 nM) > 45.8 µM.

In the case of `COC(=O)Nc1nc2cc(Sc3ccccc3)ccc2[nH]1` [Fenbendazole], the IC50 cell viability is > 45.8 µM (ICRF193 0 nM) and > 45.8 µM (ICRF193 200 nM).

Consider `O=C(CCCN1CCC(O)(c2ccc(Cl)cc2)CC1)c1ccc(F)cc1` [Haloperidol], for which the IC50 cell viability reads like this: (ICRF193 0 nM) > 45.8 µM; (ICRF193 200 nM) > 45.8 µM.

On to `CCCCN(CCN(CCCC)C(=O)N1CCOCC1)C(=O)N1CCOCC1` [Dimorpholamine], for which the IC50 cell viability by setting is: (ICRF193 0 nM) > 45.8 µM; (ICRF193 200 nM) > 45.8 µM.

Take `O=C1c2cccc(O)c2C(=O)c2c(O)cccc21` [Danthron]: the IC50 cell viability is > 45.8 µM (ICRF193 0 nM) and > 45.8 µM (ICRF193 200 nM).

For the compound `c1ccc2[nH]ccc2c1` [Indole], the IC50 cell viability is, setting by setting: (ICRF193 0 nM) > 45.8 µM; (ICRF193 200 nM) > 45.8 µM.

Turning to `CCCN(CCC)S(=O)(=O)c1ccc(C(=O)O)cc1` [Probenecid], the IC50 cell viability by setting is: (ICRF193 0 nM) > 45.8 µM; (ICRF193 200 nM) > 45.8 µM.

As to `COC(=O)[C@H]1[C@H]2C[C@@H]3c4[nH]c5cc(OC)ccc5c4CCN3C[C@H]2C[C@@H](OC(=O)/C=C/c2cc(OC)c(OC)c(OC)c2)[C@@H]1OC` [Rescinnamin], the IC50 cell viability runs as follows: (ICRF193 0 nM) > 45.8 µM; (ICRF193 200 nM) > 45.8 µM.

As for `CC(C)C[C@H](NC(=O)[C@@H](O)[C@H](N)Cc1ccccc1)C(=O)O` [Ubenimex], the IC50 cell viability (ICRF193 0 nM) was > 45.8 µM and the IC50 cell viability (ICRF193 200 nM) is > 45.8 µM.

As to `Cc1cccc(C)c1NC(=O)CC12CCCN1CCC2` [Pilsicainide], the IC50 cell viability runs as follows: (ICRF193 0 nM) > 45.8 µM; (ICRF193 200 nM) > 45.8 µM.
